# According to patent US9783485B1, “Crystalline inhibitor of 4-hydroxyphenylpyruvate dioxygenase, and a process of synthesis and crystallization thereof” (Dipharma S.A., priority 2016, dated 2017):
# Assay: Stability studies of nitisinone obtained through the process of the invention (storage; appearance, KF water, HPLC assay, impurities by HPLC and HPLC/MS)
# Format: physicochemical
# Source text: When referring to purity determined by HPLC techniques, said chromatograms are gathered at a wavelength of 235 nm. […] The presence of impurity-4 was checked by reverse HPLC/MS using the method described in the table underneath. [table] [table]
compound,measurement,setting,value
"O=C1CCCC(=O)C1C(=O)c1ccc(C(F)(F)F)cc1[N+](=O)[O-] [nitisinone, 2-(2-nitro-4-trifluoromethylbenzoyl)-1,3-cyclohexanedione]",stability (in words),"even in accelerated conditions, period of at least six months",extremely stable
same,impurity-4 content (in words),"independently from the storage conditions, reverse HPLC/MS",below the limit of quantification
